This is an account of results in patent US20060105344A1, “Modulation of deubiquitinase family members” (priority 2003, published 2006).

The test system of one data set is Hela cells. Briefly: TNF-α/cycloheximide-induced apoptosis assay in Hela cells. The class given is cell-based. The conditions noted are these: 12-hour treatment with TNF-α in the presence of cycloheximide. The source says:
This pro-apoptotic activity of TNF-α can be inhibited by simultaneous activation of NF-κB; which activates a number of anti-apoptotic genes^15. Since CYLD knockdown stimulates PMA-induced activation of NF-κB, we asked if CYLD and PMA also collaborate to inhibit TNF-α induced apoptosis. To address this, we treated Hela cells with TNF-α in the presence of cycloheximide (CHX) to induce apoptosis both with and without pre-treatment with PMA (see methods). […] Consistent with this notion, CYLD knockdown and PMA also collaborated in NF-κB activation in Hela cells.
As was discussed above, it is possible that loss of the CYLD tumour suppressor gene confers resistance to apoptosis through activation of NF-κB. If this notion is correct, one would expect that the protective effect of CYLD knockdown on apoptosis can be reversed by the NF-κB inhibitor aspirin. We tested this by treating Hela cells with TNF-α (10 ng/ml) and PMA (200 ng/ml) or PMA and aspirin (8 mM) in the presence of CYLD knockdown. Cycloheximide (10 μg/ml) was used alongside TNF to induce apoptosis.
Electroporated Hela cells with the indicated plasmids were treated with 200 nM PMA for 2-3 hrs 72 hrs post-transfection followed by 12 hrs incubation in medium containing 10 ng/ml TNF-α and 10 μg/ml cycloheximide. Viable cells were quantified using the trypan-blue exclusion method. Alternatively, apoptotic cells were removed by PBS washing, adherent cells were fixed in 4% paraformaldehyde and stained using 0.1% crystal violet (Sigma) and the optical density at 590 nm was determined as described^22. To inhibit NF-κB activity medium was supplemented with 10 mM Sodium acetylsalicylic acid 3.5 hrs before TNF-α addition.

The next data set relates to IKKβ. The experiment in a line: IKKβ immunoprecipitation / in vitro kinase assay. The class given is cell-based. The conditions noted are these: Flag-IKKβ immunoprecipitated, GST-IκBα (1-72) substrate; TNF-α treatment alone. Here is the method:
Next, we asked if CYLD could physically associate with known members of the NF-κB signalling machinery. In this experiment, 293 cells were transfected as indicated, lysates were prepared 48 hours later and the protein complexes immunoprecipitated (IP) using Flag antibody. Ips were immunoblotted for HA-tagged CYLD and whole cell extracts were immunoblotted fro Flag-tagged IκBα, IκKβ and NEMO/IKKγ and for HA-tagged CYLD. CYLD co-immunoprecipitated specifically with NEMO/IKKγ, but not with […] or IκBα. […] To address this, we measured IKKβ kinase activity following TNF-α stimulation in the presence and absence of CYLD knockdown, using an in vitro kinase assay. In summary, U2-S cells were co-transfected with Flag-tagged IKKβ and pSUPER-CYLD or empty vector. Cells were stimulated as indicated, IKKβ was immunoprecipitated from cell lysates and incubated with GST-IκBα (1-72) in the presence of ^32P-γATP. Immunoprecipitated IKKβ was visualised by immunoblotting with Flag antibody. In the absence of TNF-α, no IKKβ kinase activity towards IκBα could be detected.
Western blots were performed using whole cell extracts, separated on 8-12% SDS-PAGE gels and transferred to polyvinylidine difuoride membranes (Millipore). Western blots were probed with the indicated antibodies. […]

With TNF-α, in the data set with Hela cells, the “apoptosis of Hela cells” value is listed as roughly 95%. Besides, the “IKKβ kinase activity towards IκBα” value in the data set with IKKβ is listed as “significantly stimulated”.
